Data reported in patent publication US8410130B2, “Synthesis of 8H-3A-aza-cyclopenta [A ]indenes and 5,10-dihydropyrrolo[1,2-B]isoquinolines derivatives and their use as antitumor therapeutic agents” (Academia Sinica, priority 2007, dated 2013).
Where two headings read alike, the source gives them in different places.

How the values were obtained:
[1] = tested on: CCRF-CEM human lymphoblastic leukemia cells; experiment: In vitro cytotoxicity, XTT assay, 72-hr incubation; format: cell-based
Description: (§1) Human colon carcinoma HCT-116 cells, human prostate adenocarcinoma PC-3 and adenocarcinoma SK-OV-3 cells were obtained from American Type Culture Collection (ATCC, Rockville, Md.). Human mammary carcinoma (MX-1) tumor cells were obtained from MSKCC cell bank. The CCRF-CEM human lymphoblastic leukemia cells and their vinblastine resistant subline (CCRF-CEM/VBL, 680-fold resistance in vitro) were obtained from Dr. William Beck of the University of Illinois, Chicago, and CCRF-CEM/Taxol (330-fold resistance in vitro). Resistant cells CCRF-CEM/taxol were produced by exposing the parent cells to increasing sublethal concentration (IC50-IC90) of paclitaxel for six months.
(§2) In preparation for in vitro cytotoxicity assays, cells were cultured at an initial density 2-5×10^4 cells per milliliter. They were maintained in a 5% CO2-humidified atmosphere at 37° C. in RPMI medium 1640 (GIBCO/BRL) containing penicillin (100 units/mL), streptomycin (100 μg/mL, GIBCO/BRL), and 5% heat-inactivated FBS. For cells grown in suspension (such as CCRF-CEM and its sublines), cytotoxicity was measured, by using XTT microculture method in 96-well microtiter plates (Scudiero D A et al., Cancer Res. 1988, 48, 4827-4833). For solid tumor cells growing in a monolayer (such as MX-1 and HCT-116), cytotoxicity of the drug was determined, in duplicate, in 96-well microtiter plates by using the sulforhodamine B method (Skehan P et al., J. Natl. Cancer Inst 1990, 82, 1107-1112). For both methods, the absorbance of each well was measured with a microplate reader (Power Wave XS, Bio-Tek, Winooski, Vt.) after 72-hr incubation as described previously (Chou T-C et al., Proc. Natl. Acad. Sci. USA 2001, 98, 8113-8118). Dose-effect relationship data from 6 to 7 concentrations of each drug, in duplicate, were analyzed by using a computer program (Chou T-C et al., ComboSyn, Inc., Paramus, N J. 2005) based on the median-effect principle and plot (Chou T-C et al., Adv. Enzyme Regul. 1984, 22, 27-55; Chou T-C, Pharmacol. Rev. 2006, 58, 621-681).
(§3) The IC50 is defined by the concentration required to inhibit tumor cell growth by 50%. […] The growth inhibition of the compounds disclosed herein against human lymphoblastic leukemic cells (CCRF-CEM) and its drug-resistant sublines (resistant to vinblastine and taxol, CCRF-CEM/VBL and CCRF-CEM/taxol, respectively) is also shown in Table 5. […] Thus, the compounds disclosed herein are effective against multiple drug resistant tumors.

CCRF-CEM/VBL = experiment: In vitro cytotoxicity, XTT assay, vinblastine resistant subline; format: cell-based, human; details: for IC50: XTT assay, 72-hr incubation; for fold of cross-resistant, CCRF-CEM/VBL vs IC50 of the parent cell line: numbers in brackets
Description: as §1, §2, §3

CCRF-CEM/Taxol = experiment: In vitro cytotoxicity, XTT assay, taxol resistant subline; format: cell-based, human; details: for IC50: XTT assay, 72-hr incubation; for fold of cross-resistant, CCRF-CEM/Taxol vs IC50 of the parent cell line: numbers in brackets
Description: as §1, §2, §3

[2] = tested on: Human colon carcinoma HCT-116 cells; experiment: In vitro cytotoxicity, sulforhodamine B (SRB) assay; format: cell-based
Description: as §1, §2, §3

[3] = tested on: Human mammary carcinoma (MX-1) tumor cells; experiment: as above; format: cell-based; details: 72-hr incubation
Description: as §1, §2, §3

[4] = Homo sapiens, HCT-116, 72-hr incubation

COc1ccc(-c2c(CO)c(CO)c3n2-c2ccccc2C3)cc1OC [DA-1097, (3-(3,4-Dimethoxyphenyl)-2-hydroxymethyl-8H-3a-aza-cyclopenta[a]inden-1-yl)methanol]
IC50 ([1]; Homo sapiens, CCRF-CEM): 1040 nM | IC50 (CCRF-CEM/VBL; Homo sapiens, CCRF-CEM): 1140 nM | fold of cross-resistant, CCRF-CEM/VBL vs IC50 of the parent cell line (CCRF-CEM/VBL): [1.1x] | IC50 (CCRF-CEM/Taxol; Homo sapiens, CCRF-CEM): 1950 nM | fold of cross-resistant, CCRF-CEM/Taxol vs IC50 of the parent cell line (CCRF-CEM/Taxol): [1.87x] | IC50 [2, 4]: 4090 nM | IC50 ([3]; Homo sapiens): 11100 nM

CNC(=O)OCc1c(COC(=O)NC)c2n(c1C)-c1ccccc1C2 [DA-1100, methyl carbamic acid 3-methyl-2-methylcarbamoyloxymethyl-8H-3a-aza-cyclopenta[a]inden-1-yl methyl ester]
IC50 ([1]; Homo sapiens, CCRF-CEM): 188 nM | IC50 (CCRF-CEM/VBL; Homo sapiens, CCRF-CEM): 126 nM | fold of cross-resistant, CCRF-CEM/VBL vs IC50 of the parent cell line (CCRF-CEM/VBL): [0.67x] | IC50 (CCRF-CEM/Taxol; Homo sapiens, CCRF-CEM): 67 nM | fold of cross-resistant, CCRF-CEM/Taxol vs IC50 of the parent cell line (CCRF-CEM/Taxol): [0.36x] | IC50 [2, 4]: 297 nM | IC50 ([3]; Homo sapiens): 355 nM

CCc1c(COC(=O)NC)c(COC(=O)NC)c2n1-c1ccccc1C2 [DA-1101, methyl carbamic acid 3-ethyl-2-methyl carbamoyloxymethyl-8H-3a-aza-cyclopenta[a]inden-1-ylmethyl ester]
IC50 ([1]; Homo sapiens, CCRF-CEM): 68 nM | IC50 (CCRF-CEM/VBL; Homo sapiens, CCRF-CEM): 78 nM | fold of cross-resistant, CCRF-CEM/VBL vs IC50 of the parent cell line (CCRF-CEM/VBL): [1.15x] | IC50 (CCRF-CEM/Taxol; Homo sapiens, CCRF-CEM): 99 nM | fold of cross-resistant, CCRF-CEM/Taxol vs IC50 of the parent cell line (CCRF-CEM/Taxol): [1.46x] | IC50 [2, 4]: 707 nM | IC50 ([3]; Homo sapiens): 670 nM

COc1ccc(-c2c(CO)c(CO)c3n2Cc2ccccc2C3)cc1 [DA-1106, [2-Hydroxymethyl-3-(4-methoxyphenyl)-5,10-dihydropyrrolo[1,2-b]isoquinolin-1-yl]methanol]
IC50 ([1]; Homo sapiens, CCRF-CEM): 228 nM | IC50 (CCRF-CEM/VBL; Homo sapiens, CCRF-CEM): 111 nM | fold of cross-resistant, CCRF-CEM/VBL vs IC50 of the parent cell line (CCRF-CEM/VBL): [0.49x] | IC50 (CCRF-CEM/Taxol; Homo sapiens, CCRF-CEM): 232 nM | fold of cross-resistant, CCRF-CEM/Taxol vs IC50 of the parent cell line (CCRF-CEM/Taxol): [1.02x] | IC50 [2, 4]: 1030 nM | IC50 ([3]; Homo sapiens): 1940 nM

CNC(=O)OCc1c(COC(=O)NC)c2n(c1C)Cc1ccccc1C2 [DA-1108, methylcarbamic acid 3-methyl-1-methylcarbamoyloxymethyl-5,10-dihydro-pyrrolo[1,2-b]isoquinolin-2-ylmethyl ester]
IC50 ([1]; Homo sapiens, CCRF-CEM): 128 nM | IC50 (CCRF-CEM/VBL; Homo sapiens, CCRF-CEM): 76 nM | fold of cross-resistant, CCRF-CEM/VBL vs IC50 of the parent cell line (CCRF-CEM/VBL): [0.59x] | IC50 (CCRF-CEM/Taxol; Homo sapiens, CCRF-CEM): 111 nM | fold of cross-resistant, CCRF-CEM/Taxol vs IC50 of the parent cell line (CCRF-CEM/Taxol): [0.87x] | IC50 [2, 4]: 1160 nM | IC50 ([3]; Homo sapiens): 1680 nM

CNC(=O)OCc1c(COC(=O)NC)c(-c2ccc(OC)cc2)n2c1Cc1ccccc1C2 [DA-1109, methylcarbamic acid 3-(4-methoxyphenyl)-2-methylcarbamoyloxymethyl-5,10-dihydr-pyrrolo[1,2-b]isoquinolin-1-ylmethyl ester]
IC50 [1]: 184 nM | IC50 (CCRF-CEM/VBL): 111 nM | fold of cross-resistant, CCRF-CEM/VBL vs IC50 of the parent cell line (CCRF-CEM/VBL): [0.60x] | IC50 (CCRF-CEM/Taxol): 161 nM | fold of cross-resistant, CCRF-CEM/Taxol vs IC50 of the parent cell line (CCRF-CEM/Taxol): [0.88x] | IC50 ([2]; 72-hr incubation): 1110 nM | IC50 [3]: 1310 nM

OCc1c(CO)c(-c2ccc(F)c(F)c2)n2c1Cc1ccccc1C2 [DA-1112, [3-(3,4-Difluorophenyl)-2-hydroxymethyl-5,10-dihydropyrrolo[1,2-b]isoquinolin-1-yl]methanol]
IC50 ([1]; Homo sapiens, CCRF-CEM): 1140 nM | IC50 (CCRF-CEM/VBL; Homo sapiens, CCRF-CEM): 1010 nM | fold of cross-resistant, CCRF-CEM/VBL vs IC50 of the parent cell line (CCRF-CEM/VBL): [0.89x] | IC50 (CCRF-CEM/Taxol; Homo sapiens, CCRF-CEM): 745 nM | fold of cross-resistant, CCRF-CEM/Taxol vs IC50 of the parent cell line (CCRF-CEM/Taxol): [0.66x] | IC50 [2, 4]: 2920 nM | IC50 ([3]; Homo sapiens): 6670 nM

CNC(=O)OCc1c(COC(=O)NC)c(-c2ccc(F)c(F)c2)n2c1Cc1ccccc1C2 [DA-1113, methylcarbamic acid 3-(3,4-difluorophenyl)-2-methylcarbamoyloxymethyl-5,10-dihydropyrrolo[1,2-b]isoquinolin-1-methyl ester]
IC50 [1]: 488 nM | IC50 (CCRF-CEM/VBL): 519 nM | fold of cross-resistant, CCRF-CEM/VBL vs IC50 of the parent cell line (CCRF-CEM/VBL): [1.06x] | IC50 (CCRF-CEM/Taxol): 643 nM | fold of cross-resistant, CCRF-CEM/Taxol vs IC50 of the parent cell line (CCRF-CEM/Taxol): [1.32x] | IC50 ([2]; 72-hr incubation): 358 nM | IC50 [3]: 2710 nM

OCc1c(CO)c(-c2ccc(Cl)cc2)n2c1Cc1ccccc1C2 [DA-1116, [3-(4-Chlorophenyl)-2-hydroxymethyl-5,10-dihydropyrrolo[1,2-b]isoquinolin-1-yl]methanol]
IC50 ([1]; Homo sapiens, CCRF-CEM): 600 nM | IC50 (CCRF-CEM/VBL; Homo sapiens, CCRF-CEM): 543 nM | fold of cross-resistant, CCRF-CEM/VBL vs IC50 of the parent cell line (CCRF-CEM/VBL): [0.91x] | IC50 (CCRF-CEM/Taxol; Homo sapiens, CCRF-CEM): 601 nM | fold of cross-resistant, CCRF-CEM/Taxol vs IC50 of the parent cell line (CCRF-CEM/Taxol): [1.00x] | IC50 [2, 4]: 2640 nM | IC50 ([3]; Homo sapiens): 3270 nM
